Legend:
Assay in all cases: In Vitro Kinase Assay
[1] = biological target: Cyclin-dependent kinase 2 (Homo sapiens, UniProt P24941)
Source text: (§1) Kinase assay using cyclin-dependant kinases (CDK).

[2] = biological target: Cyclin-dependent kinase 4 (Homo sapiens, UniProt P11802)
Source text: as §1

[3] = biological target: Cyclin-dependent kinase 1 (Homo sapiens, UniProt P06493)
Source text: as §1

[4] = biological target: Cyclin-dependent kinase 9 (Homo sapiens, UniProt P50750)
Source text: as §1

[5] = biological target: Cyclin-dependent kinase 7 (Homo sapiens, UniProt P50613)
Source text: as §1

Cyclin-dependent kinase 7, sequence (P50613 whole entry): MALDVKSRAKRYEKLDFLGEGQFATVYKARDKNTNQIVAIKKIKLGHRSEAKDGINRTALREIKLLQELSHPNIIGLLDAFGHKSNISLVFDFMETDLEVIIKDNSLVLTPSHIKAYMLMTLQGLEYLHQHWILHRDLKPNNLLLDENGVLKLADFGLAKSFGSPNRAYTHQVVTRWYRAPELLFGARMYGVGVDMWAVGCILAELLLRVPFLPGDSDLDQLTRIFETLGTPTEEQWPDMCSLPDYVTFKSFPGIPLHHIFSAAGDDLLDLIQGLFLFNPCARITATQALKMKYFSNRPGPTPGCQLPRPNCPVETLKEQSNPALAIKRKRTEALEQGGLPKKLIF
Cyclin-dependent kinase 4, sequence (P11802 whole entry): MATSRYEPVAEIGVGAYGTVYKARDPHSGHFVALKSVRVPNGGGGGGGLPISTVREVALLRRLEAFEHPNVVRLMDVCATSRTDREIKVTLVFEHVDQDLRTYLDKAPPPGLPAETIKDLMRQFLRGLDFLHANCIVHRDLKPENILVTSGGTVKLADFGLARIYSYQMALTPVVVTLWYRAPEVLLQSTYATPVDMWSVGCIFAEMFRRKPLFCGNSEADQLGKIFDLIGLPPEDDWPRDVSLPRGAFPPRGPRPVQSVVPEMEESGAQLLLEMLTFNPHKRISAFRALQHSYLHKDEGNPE
Cyclin-dependent kinase 9, sequence (P50750 whole entry): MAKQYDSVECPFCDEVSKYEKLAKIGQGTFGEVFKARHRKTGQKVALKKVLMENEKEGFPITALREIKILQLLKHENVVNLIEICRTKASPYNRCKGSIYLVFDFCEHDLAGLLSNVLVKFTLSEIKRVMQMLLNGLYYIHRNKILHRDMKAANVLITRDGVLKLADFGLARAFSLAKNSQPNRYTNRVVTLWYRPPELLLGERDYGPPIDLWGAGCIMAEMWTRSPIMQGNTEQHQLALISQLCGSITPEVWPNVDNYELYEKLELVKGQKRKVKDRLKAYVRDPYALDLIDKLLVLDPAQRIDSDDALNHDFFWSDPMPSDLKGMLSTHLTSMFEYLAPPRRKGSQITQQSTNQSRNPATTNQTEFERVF
Cyclin-dependent kinase 1, sequence (P06493 whole entry): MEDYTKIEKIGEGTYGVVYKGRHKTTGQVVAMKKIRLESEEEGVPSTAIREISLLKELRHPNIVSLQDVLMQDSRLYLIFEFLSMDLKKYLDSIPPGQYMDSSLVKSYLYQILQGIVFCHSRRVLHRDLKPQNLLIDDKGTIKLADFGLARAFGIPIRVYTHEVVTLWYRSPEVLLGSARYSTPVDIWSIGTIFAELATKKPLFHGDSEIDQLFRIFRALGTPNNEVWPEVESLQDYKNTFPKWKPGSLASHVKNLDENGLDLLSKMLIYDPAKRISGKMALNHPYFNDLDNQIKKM

Structure (SMILES) | Ki [1] | Ki [2] | Ki [3] | Ki [4] | Ki [5]
Cc1c(-c2ccnc(Nc3cccc(C#N)c3)n2)sc(=O)n1C [CDK Inhibitor, 12] | 0.00052 µM | 0.102 µM |  |  | 
CCNS(=O)(=O)c1cccc(Nc2nccc(-c3sc(N)nc3C)n2)c1 [CDK Inhibitor, 8] | 0.047 µM | 0.391 µM | 0.66 µM | 0.0059 µM | 0.193 µM
Cc1ccc(Nc2nccc(-c3sc(=O)n(C)c3C)n2)cc1[N+](=O)[O-] [CDK Inhibitor, 13] | 0.028 µM | 0.06 µM | 0.003 µM | 0.0059 µM | 0.00056 µM
CNc1nc(C)c(-c2ccnc(Nc3cccc(S(C)(=O)=O)c3)n2)s1 [CDK Inhibitor, 6] | 0.0016 µM | 0.094 µM | 0.086 µM | 0.00029 µM | 0.091 µM
CNS(=O)(=O)c1cccc(Nc2nccc(-c3sc(N)nc3C)n2)c1 [CDK Inhibitor, 5] | 0.026 µM | 0.163 µM | 0.233 µM | 0.0043 µM | 0.127 µM
COCCNS(=O)(=O)c1ccc(Nc2nccc(-c3sc(=O)n(C)c3C)n2)cc1 [CDK Inhibitor, 11] |  | > 0.5 µM |  |  | 
Cc1ccc(Nc2nccc(-c3sc(N)nc3C)n2)cc1S(=O)(=O)N1CCOCC1 [CDK Inhibitor, 10] | > 0.5 µM | > 0.5 µM | > 0.5 µM | 0.0085 µM | 0.304 µM
CCNc1nc(C)c(-c2ccnc(Nc3cccc(S(C)(=O)=O)c3)n2)s1 [CDK Inhibitor, 7] | 0.0076 µM | 0.139 µM | > 0.5 µM | 0.00096 µM | 0.047 µM
CCNc1nc(C)c(-c2ccnc(Nc3cccc(S(N)(=O)=O)c3)n2)s1 [CDK Inhibitor, 2] | 0.403 µM | 0.132 µM | 0.691 µM | 0.0045 µM | 0.056 µM
CNc1nc(C)c(-c2ccnc(Nc3ccc(C)c(S(=O)(=O)N4CCOCC4)c3)n2)s1 [CDK Inhibitor, 9] | > 0.5 µM | > 0.5 µM | > 0.5 µM | 0.0067 µM | 3.47 µM
CNc1nc(C)c(-c2ccnc(Nc3cccc(S(=O)(=O)NC)c3)n2)s1 [CDK Inhibitor, 4] | 0.033 µM | 0.02 µM | 0.334 µM | 0.0043 µM | 0.107 µM
CNc1nc(C)c(-c2ccnc(Nc3cccc(S(N)(=O)=O)c3)n2)s1 [CDK Inhibitor, 3] | 0.0024 µM | 0.0091 µM | 0.067 µM | 0.0008 µM | 0.025 µM
Cc1c(-c2ccnc(Nc3ccc(N4CCNCC4)cc3)n2)sc(=O)n1C [CDK Inhibitor, 14] | 0.149 µM | 0.068 µM | 0.449 µM | 0.00038 µM | 0.0023 µM

— BindingDB's records for doi:10.1016/j.chembiol.2010.07.016 (Cyclacel, 2010)
